Measurements as given in article PMC11973282, “RAS70 peptide targets multiforme glioblastoma by binding to the plasma membrane heat shock protein HSP70” (Frontiers in Oncology, 2025).

What was measured:
[1] = tested on: human U87 glioblastoma cells; assay: Flow cytometry of FITC-labeled peptide internalization, 24 h (also with antibody pre-treatment); assay type: cell-based; conditions: for peptide internalization after pre-treatment with anti-Hsp70 antibodies: cells pre-treated with anti-Hsp70 mAbs SPA-810, SPA-815 (1:250); for peptide uptake after pre-treatment with both anti-Hsp70 and anti-αvβ3/-αvβ5 mAbs: combination of antibodies; for mean fluorescence intensity (MFI), internalization of FITC-labeled peptide: U87, 50 μg/mL, 24 hours, flow cytometry, M ± SE, 3 independent experiments
Experimental: The binding of the TKD-sCy5, RAS70-sCy5, and NGL-RGD-sCy5 peptides were analyzed using a CytoFLEX flow cytometer (Beckman Coulter, USA). A single cell suspension of C6, GL261, T98G, U87, U251, ANI, IBD, TMS (0.15×10^6 cells in mL^-1) were incubated for 30 minutes on ice in the dark with peptides in concentration of 75 μg/mL, and then washed with cold PBS solution. Cells without peptides were used as controls. To evaluate incorporation of the fluorescently-labeled peptides for longer period of co-incubation of 24 h cells (C6, GL261, U87, U251) were treated with FITC-labeled peptides, then washed with PBS and assessed on a CytoFLEX flow cytometer (Beckman Coulter, USA). Following FACS analysis cell pellet was further evaluated employing confocal microscopy Leica TCS SP8 (Leica Microsystems, Germany).
The incorporation of peptides over longer periods of co-incubation with brain tumor cells was additionally analyzed using a Cytomics FC500 flow cytometer (BeckmanCoulter, USA). Tumor cells (C6, GL261, U87, U251) were incubated with peptides (concentration 50 μg/mL) for 24 hours, washed with PBS. Internalization of FITC-labeled peptides was assessed by determining the mean fluorescence intensity (MFI). According to the study data ( Figure 6A ), it was shown that TKD peptide accumulated in all cell lines – 2120 ± 152 (C6), 2099 ± 107 (GL261), 2145 ± 189 (U87), 2373 ± 201 (U251) compared to the control scramble peptide (NGL) – 378 ± 48 (C6), 344 ± 57 (GL261), 301 ± 66 (U87), 313 ± 56 (U251) (P<0.001). […] Following FACS analysis the cell pellet was collected and evaluated for peptides cell uptake employing confocal microscopy ( Figure 6B ). The obtained microscopy data confirmed higher accumulation of RAS70 peptide in studied cell lines as compared to TKD or scramble peptides.
Figure 6 Evaluation of the mHsp70-targeting peptides internalization by glioma cells. (A) Flow cytometric evaluation of FITC-labeled peptide accumulation in tumor cell lines (rat glioma C6, mouse glioma GL261, human glioblastoma U87 and U251) after co-incubation for 24 hours. […] (B) Confocal microscopy assessment of FITC-labeled peptide accumulation in tumor cell lines (rat glioma C6, mouse glioma GL261, human glioblastoma U87 and U251) after co-incubation for 24 hours. […] (C) Analysis of the peptides uptake by human U87 glioblastoma cells following co-incubation for 24 hours.
To evaluate the mHsp70-mediated uptake of the peptides prior to co-incubation with either TKD or RAS70 peptides cells were pre-treated with anti-Hsp70 antibodies (SPA-810, SPA-815) that are known to target the membrane-bound chaperone on cancer cells ([37]). […] The tripeptide RGD (Arg-Gly-Asp) motif is known to bind to integrins, including αvβ3 and αvβ5 expressed on brain tumor cells and tumor endothelial cells ([38], [39]). […] As expected, we observed the decrease of NGL-RGD and RAS70 internalization by tumor cells but not of TKD or NGL peptides ( Figure 6C ).

normal brain tissues = assay: Ex vivo staining of normal brain tissue from patients with epilepsy; set-up: species or system human; conditions: tissues obtained intraoperatively from patients with epilepsy (n=2)
Experimental: For evaluation of targeting properties of RAS70 peptide in the non-tumorous brain tissues patient-derived samples obtained intraoperatively from patients with drug-resistant epilepsy underwent temporal resection (n=2) were employed.
Small pieces of brain tissue (50-100 mm³) were taken from patients or animals during surgery. The resulting material was washed three times in a PBS solution at room temperature and then stained, gently shaking, for 1 hour with one of the following combinations of dyes: a mixture of Hoechst 33342 (0.1 μg/mL) [Invitrogen, USA], monoclonal antibodies against Hsp70 conjugated with FITC, and RAS70 conjugated with Cy5; a mixture of Hoechst 33342 (0.1 μg/mL), LumiTracker® Mito Green FM [Lumiprobe, Russia], and TKD/NGL-RGD/RAS70 conjugated with sCy5. […] Hoechst 33342 fluorescence was excited with a 405 nm laser and recorded in the range 410 to 550 nm; Hsp70-FITC and Mito Green fluorescence were excited with a 488 nm laser and recorded in the range 495 to 550 nm; and Cy5 fluorescence was excited with a 633 nm laser and recorded in the range 635 to 750 nm. […]
To detect peptide localization, the biopsy material was additionally stained with a mitochondrial marker MitoGreen and anti-Hsp70 antibodies (SPA-810). […] Additionally, we assessed the depth of the RAS70-sCy3/sCy5 penetration into the tumor tissues […]. […]

[2] = tested on: GL261 cells (lower chamber; HUVEC and astrocytes barrier)
Experimental: (§1) Then, a peptide labeled with a fluorescent label was introduced into the upper chamber and co-incubation was carried out for 12, 24 and 36 hours. At the end of the incubation, the tumor cells were washed with cold phosphate-buffered saline (PBS) and fixed with a 4% solution of paraformaldehyde in PBS. Nuclei were stained with 4’,6-diamidino-2-phenylindole (DAPI). Fluorescent images were obtained using a Leica TCS SP8 confocal microscope (Leica, Germany). To avoid possible cross-interference of different fluorochromes, images for DAPI and FITC were obtained using a sequential sample scanning method. Fluorescently labeled cells were counted in the lower chamber. To estimate the mHsp70-mediated uptake of chaperone-targeted peptides tumor cells prior to incubation were pre-treated with anti-Hsp70 monoclonal antibodies SPA-810 (1:250, Stressgen) and SPA-815 (1:250 Stressgen). To exclude integrin (αvβ3, αvβ5)-mediated penetration of RAS70 tumor cells prior to incubation with peptides were pre-treated with anti- αvβ3 (1:200 clone LM609, ZMS1030, Sigma-Aldrich, USA), -αvβ5 (1:200 clone P1F6, MAB1961Z, Sigma-Aldrich, USA) monoclonal antibodies.
(§2) Then, a peptide labeled with a fluorescent dye (FITC) was introduced into the upper chamber and co-incubation was carried out for 12, 24 and 36 hours. At the end of the incubation, the tumor cells were washed with cold phosphate-buffered saline (PBS) and fixed with a 4% solution of paraformaldehyde in PBS. Nuclei were stained with 4’,6-diamidino-2-phenylindole (DAPI).
(§3) Data from 3 independent experiments are presented as M ± SE. […] Data from 3 independent experiments are presented as M ± SE. ** p < 0.01 for testing mean expression levels.

[3] = tested on: U251 cells (lower chamber; HUVEC and astrocytes barrier)
Experimental: as §1, §2, §3

[4] = tested on: C6, GL261, and T98G cells; assay: MTT test, overall statement for all cell lines studied; conditions: fluorescently labeled peptides, 7.5, 75, 750 µg/mL, 24, 48 and 72 hours
Experimental: 3-(4,5-dimethylthiazol-2-yl)-2,5-diphenyltetrazolium bromide (MTT) assay was performed to evaluate the cytotoxic effect of TKD-sCy5, RAS70-sCy5, and NGL-RGD-sCy5 peptides. The C6, GL261, and T98G cells were seeded in 96-well plates (Thermo Fisher Scientific, Waltham, USA) at concentration of 5*10^3 cells in 100 µL per well, plates were incubated at 37°C in 5% CO2. After 24 hours, peptides were added to the culture medium for final concentration of 7.5, 75, and 750 μg/mL; plates were incubated for 24, 48 and 72 hours. […] At the end of the incubation period, 1 mg/mL MTT solution was added for 4 hours and dissolved with DMSO. The absorbance was measured at 570 nm using Varioskan LUX Multimode Microplate Reader (Thermo Fisher Scientific, Waltham, USA).
Subsequently, we analyzed the cytotoxic effect of the peptides (RAS70, TKD, NGL, NGL-RGD) using the MTT test at various peptides concentrations (7.5, 75, 750 µg/mL) and co-incubation times of 24, 48 and 72 hours.

[5] = tested on: C6 cells (lower chamber; HUVEC and astrocytes barrier); assay: Transwell BBB model, peptide passage and accumulation in tumor cells; conditions: transwell BBB model: HUVEC (5×10^5) and astrocytes (5×10^5) in upper chamber, C6 (1×10^4) in lower chamber; FITC-labeled peptide; 36 hours; confocal microscopy count; M ± SE, 3 independent experiments
Experimental: as §1, §2, §3

SMILES: CC(C)C[C@H](NC(=O)[C@H](CC(C)C)NC(=O)[C@H](CC(N)=O)NC(=O)[C@H](CC(N)=O)NC(=O)[C@H](CC(=O)O)NC(=O)[C@H](CCCCN)NC(=O)[C@@H](N)[C@@H](C)O)C(=O)NCC(=O)N[C@@H](CCCNC(=N)N)C(=O)N[C@@H](Cc1ccccc1)C(=O)N[C@@H](CCC(=O)O)C(=O)N[C@@H](CC(C)C)C(=O)N[C@@H](CO)C(=O)NCC(=O)NCCC(=O)N[C@@H](CCCNC(=N)N)C(=O)NCC(=O)N[C@@H](CC(=O)O)C(=O)O [RAS70]
- peptide internalization after pre-treatment with anti-Hsp70 antibodies ([1]; U87, 24 hours): significant decrease
- peptide internalization after pre-treatment with anti-αvβ3 and -αvβ5 antibodies ([1]; U87, 24 hours, cells pre-treated with anti-αvβ3 (LM609) and anti-αvβ5 (P1F6) mAbs (1:200)): decrease
- peptide uptake after pre-treatment with both anti-Hsp70 and anti-αvβ3/-αvβ5 mAbs ([1]; U87, 24 hours): significant abrogation
- mean fluorescence intensity (MFI), internalization of FITC-labeled peptide [1]: 2999 ± 209
- localization in normal brain tissue (normal brain tissues): no tissue-specific localization of RAS70 was detected
- fluorescently labeled tumor cells in the lower chamber [2]: 553 ± 61 cells
- fluorescently labeled tumor cells in the lower chamber [3]: 603 ± 87 cells

SMILES: CC(C)C[C@H](NC(=O)[C@H](CC(C)C)NC(=O)[C@H](CC(N)=O)NC(=O)[C@H](CC(N)=O)NC(=O)[C@H](CC(=O)O)NC(=O)[C@H](CCCCN)NC(=O)[C@@H](N)[C@@H](C)O)C(=O)NCC(=O)N[C@@H](CCCNC(=N)N)C(=O)N[C@@H](Cc1ccccc1)C(=O)N[C@@H](CCC(=O)O)C(=O)N[C@@H](CC(C)C)C(=O)N[C@@H](CO)C(=O)NCC(=O)O [TKD]
- peptide internalization after pre-treatment with anti-Hsp70 antibodies ([1]; U87, 24 hours): significant decrease
- peptide uptake after pre-treatment with both anti-Hsp70 and anti-αvβ3/-αvβ5 mAbs ([1]; U87, 24 hours): significant abrogation
- mean fluorescence intensity (MFI), internalization of FITC-labeled peptide [1]: 2145 ± 189
- cytotoxic effect (MTT test) [4]: did not reveal the toxic effect
- fluorescently labeled tumor cells in the lower chamber [5]: 301 ± 35 cells
